One data set has as its system C57Bl/6J mice. Description: In vivo effects (tremor, seizures) after intraperitoneal injection. Set-up: species or system mouse. As to conditions: for effects in mice: doses up to 20 times higher; for Effect: N = 5. How it is done:
A consequence of excessive K^+ channel blockage is the advent of seizures. 4-AP is known to cause seizures in mice at high doses.
At high doses, 4-AP causes tremors, muscle spasms and seizures.
10-week-old female C57Bl/6J mice were given an intraperitoneal injection of the drug under investigation and monitored continuously for 4 h. After 4 h no signs of drug effects could be observed. At least 72 h passed between injections to the same mice.

The target of another data set is T1, Shaker K^+ channel (Drosophila melanogaster, UniProt P08510).
T1 construct: injecting approximately 50 ng of WT Shaker cRNA (kit Ambion) into the oocytes; expressed in transfected cells; host or cells: Xenopus laevis oocytes (cRNA injection)
T1 sequence (P08510 whole entry): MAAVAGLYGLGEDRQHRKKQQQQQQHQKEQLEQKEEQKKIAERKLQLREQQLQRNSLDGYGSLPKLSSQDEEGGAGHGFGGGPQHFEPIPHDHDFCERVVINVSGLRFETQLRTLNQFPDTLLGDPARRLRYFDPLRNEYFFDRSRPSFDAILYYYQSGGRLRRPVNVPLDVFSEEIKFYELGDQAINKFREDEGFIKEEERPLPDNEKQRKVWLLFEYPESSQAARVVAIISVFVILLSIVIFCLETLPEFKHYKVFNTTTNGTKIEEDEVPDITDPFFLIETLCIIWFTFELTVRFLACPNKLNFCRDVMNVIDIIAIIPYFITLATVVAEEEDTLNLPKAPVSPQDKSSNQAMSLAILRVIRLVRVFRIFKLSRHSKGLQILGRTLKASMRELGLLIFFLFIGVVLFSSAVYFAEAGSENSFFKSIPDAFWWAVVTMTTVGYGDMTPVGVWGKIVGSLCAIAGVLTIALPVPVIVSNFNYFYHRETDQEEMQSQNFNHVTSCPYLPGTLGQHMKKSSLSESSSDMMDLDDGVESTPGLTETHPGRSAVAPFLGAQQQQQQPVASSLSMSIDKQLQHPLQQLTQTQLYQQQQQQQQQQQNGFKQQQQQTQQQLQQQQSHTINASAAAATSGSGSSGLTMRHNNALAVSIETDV
Description: Inhibition of K+ currents, cut-open oocyte voltage clamp. The data set is classed as cell-based, Xenopus oocytes. As to conditions: for fold less potent than 4-AP: cut-open oocyte voltage clamp (Example 2); for IC50: relative K+ current at +20 mV, Xenopus oocytes, Hill fit, read-out: half-maximal inhibitory concentration (IC50). On the procedure: Using the cut-open oocyte voltage clamp studies to screen compounds to determine their potency towards Kv1 cannels was previously described in Starace and Bezanilla et al. (2004).
For this experiment, Shaker K^+ channel from D. […] was chosen as the archetypical voltage gated K^+ channel that gives name to the family.
Electrophysiology studies are conducted according to the protocol by Stefani and Bezanilla (1998). Briefly, K^+ channel Shaker cRNA is injected into Xenopus oocytes 24 h after their surgical extraction from adult frogs. 1-5 days after injection channel currents are recorded using the cut-open voltage-clamp.
K^+ channel expression in Xenopus oocytes membranes was achieved by injecting approximately 50 ng of WT Shaker cRNA (kit Ambion) into the oocytes 24 h after surgical extraction from adult frogs and collagenase treatment. Injected oocytes were maintained in a standard oocytes solution (100 mM NaCl, 5 mM KCl, 2 mM CaCl2, and 10 mM Hepes at pH 7.5) at 16.5° C. and recordings were performed 1-3 days after injection.
K^+ currents were recorded from oocytes expressing Shaker K^+ channels using the cut-open voltage clamp technique as described by Stefani and Bezanilla. The internal solution was 120 mM KOH, 20 mM HEPES-methyl sulfonate (MES) pH 7.4, 2 mM EGTA. The external solution was 12 mM KOH, 105 mM N-methyl-D-glucamine-MES pH 7.4, 20 mM HEPES, 2 mM CaOH. […] After application, cells were voltage-clamped at least 5 min at 0 mV, then voltage-clamped at −80 mV for 1-2 min. K^+ currents were generated by applying series of 50 ms pulses from −70 mV to +40 mV in increments of 10 mV. […] Analysis of the traces was done using an in-house software. The half-maximal inhibitory concentration (IC50) for each drug was calculated by plotting the relative K^+ current vs. concentration and fitted to the Hill equation using the software Origin.
(§1) EC50=10^<log EC50>; where <log EC50>=average of log EC50 values from all experiments with the same drug. 95% C.I.=[Upper Limit . . . Lower Limit]; where U.L.=10^(log EC50+s.d.) and L.L.=10^(log EC50−s.d.). The half-life (t1/2) in the stability and pharmacokinetic experiments was calculated by fitting the data to the equation Ct=C0*exp(−k*t) where C0=initial concentration, Ct=concentration at time t, and k=ln 2/t1/2. Student t-test was used to compare results and P<0.05 was considered significant.

Data set [1] deals with hypomyelinated optic nerves from Shiverer mice (shi^−/−). The data set is described as follows: Compound action potential (CAP) of dissected hypomyelinated optic nerve. The data set is classed as cell-based, mouse. As to conditions: for EC50: Mus musculus, hypomyelinated Shiverer optic nerve, 22 °C, Hill fit, read-out: half-maximal effective concentration (EC50) in enhancing the CAP. On the procedure:
In order to determine if the drugs could also be effective in enhancing compound action potentials (CAP), the effects of these compounds on the CAP of hypomyelinated optic nerves from Shiverer mice (shi^−/−) and control mice (shi^+/−, shi^+/+) were tested. Shiverer mice lack compact myelin in the CNS due to a null mutation of the myelin basic protein gene (MBP).
optic nerves were dissected from 12-16 week old Shiverer (shi^−/−) and control mice (shi^+/− and shi^+/+). Mice were euthanized by CO2 overdose and the optic nerves were quickly dissected between the eyeball and the optic chiasm. The nerves were incubated for 30 min at 37° C. in oxygenated (95% O2, 5% CO2) aCSF solution (126 mM NaCl, 3 mM KCl, 2 mM MgSO4, 26 mM NaHCO3, 2 mMCaCl2, 10 mM dextrose, pH 7.5) before the experiment.
compound action potentials (CAP) from hypomyelinated nerves (Shiverer mice, shi^−/−) and myelinated nerves (litermate controls, shi^+/− and shi^+/+) were recorded using suction electrodes as described by Stys et al. Briefly, the dissected optic nerve was placed inside a chamber containing oxygenated (5% CO2, 95% O2) aCSF (300 μL) between two suction electrodes (stimulus and recording electrodes) forming a tight seal on each end. Two additional electrodes were placed in the bath for reference. A supramaximal pulse (250 mV, 20 μs) was applied at the stimulating end of the nerve. The resulting CAP was amplified from the recording electrode using a high impedance low-noise amplifier (EG&G Princeton Applied Research Corporation) and filtered and sampled at 10-100 kHz. […] After each measurement the chamber was washed for 5 min (flow 1 mL/min) with oxygenated aCSF. The study was conducted at 22.2±1.3° C. to allow for slower conduction and the temperature was monitored throughout the experiment. CAP recordings were acquired with a SBC6711 board (Innovative Integration) controlled by in-house written software. Analysis of the traces was done using an in-house software. The half-maximal effective concentration (EC50) for each drug was calculated by plotting the final over initial amplitude vs. concentration and fitted to the Hill equation using Origin.
as §1, with “The Hill equation used to fit the data from the voltage-clamp and the optic nerve experiments was as follows: y=y0+(yf−y0)*x^n/(k^n+x^n); where n refers to the Hill coefficient (typically 1±0.1) and k refers to EC50 or IC50. y0 and yf refers to the origin and final ordinate values and were fixed at 1±0.1 or 0±0.1 depending on the experiment. EC50=10^<log” for “EC50=10^<log”

For `Nc1ccnc(F)c1` [2-F-4-AP, 2-fluoro-4-aminopyridine], the effects in mice result with C57Bl/6J mice is listed as “did not cause any effects”. In the data set with C57Bl/6J mice (i.p., 1920 μmol/kg), the Effect entry is given as “No effect”. On Shaker K^+ channel, the “fold less potent than 4-AP” value is recorded as “at least a hundred fold-less potent” and the IC50 was greater than 10 mM. Also, the “effect on CAP” value in data set [1] (hypomyelinated optic nerve) is “no effect”.
With `Nc1ccncc1CO` [3-MeOH-4-AP, 3-methanol-4-aminopyridine, reference compound], the effects in mice entry with C57Bl/6J mice was “did not cause any effects”. Also, the Effect result in the data set on C57Bl/6J mice (i.p., 960 μmol/kg) was “No effect”. The IC50 on Shaker K^+ channel turned out to be 4.38 mM. Also, the EC50 in data set [1] was 0.386 mM.
With `Nc1ccncc1CCF` [3-EtF-4-AP, 3-fluoroethyl-4-aminopyridine], on Shaker K^+ channel, the “fold less potent than 4-AP” value is given as “at least a hundred fold-less potent” and the IC50 was greater than 10 mM.
Consider `Nc1ccncc1CF` [3-MeF-4-AP, 3-fluoromethyl-4-aminopyridine], for which the Effect result with C57Bl/6J mice (i.p., 30 μmol/kg) is reported as “No effect”. Also, in the data set with C57Bl/6J mice (i.p., 60 μmol/kg), the Effect result is reported as “Very mild tremor. Normal after 30 min”. In addition, in the data set on C57Bl/6J mice (i.p., 90 μmol/kg), the “duration of effect (tremors, seizures or jerks)” value is roughly 45 min; the Effect entry was “Tremor and occasional jerks that last ca”. Also, in the data set with C57Bl/6J mice (i.p., 120 μmol/kg), the “duration of tremor and seizures” value is “min post-injection and last ca. 45 min”; the “mice died of seizure” value is 1 of 5 mice died of seizure; the “start of tremor and seizures post-injection” value was 5 min; the Effect entry is “Severe tremor and seizures”. Also, the “in vivo potency compared with 4-AP” value with C57Bl/6J mice (i.p., mice) is listed as “slightly less potent than 4-AP”. Further, at Shaker K^+ channel, the “fold less potent than 4-AP” value is given as “around 10 fold” and the IC50 came to 7.45 mM. The “times less potent than 4-AP” value on Shaker K^+ channel (voltage-clamp and optic nerve experiments together) was 6-20 times. Further, the EC50 in data set [1] stood at 0.286 mM.

The record behind these values is patent publication US10442767B2 (priority 2012, dated 2019).
